Test [1] deals with PI3K (Homo sapiens, UniProt P42336). Kind of test: Fluorescence polarization assay for PI3K.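 Also: PI3K kinase reaction on PIP2 with ATP, 30-60 min, product sensed by GST-GRP with red probe in fluorescence polarization (mP), controls without enzyme and at zero time.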 In kind it is biochemical. The conditions noted are these: PI3Kα; read-out: PI3Kα IC50.
In test [2] the test system is prostate line LNCap. Briefly: In vitro cell culture growth assay (MTS), LNCap. Format: cell-based, human. Particulars: LNCap cells, three days after drug treatment.
Test [3] deals with breast line MDA468. Briefly: In vitro cell culture growth assay (MTS), MDA468. Format: cell-based, human. The conditions noted are these: MDA468 cells, three days after drug treatment. The method, boiled down:
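Cells were plated and, one day later, exposed to inhibitors for three days; viable cell density was then measured by metabolic conversion of MTS dye, read as absorbance at 490 nm. Growth is expressed as percent of vehicle-treated control cells on the same plate.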

As a reminder, the IC50 is the concentration that gives 50% inhibition.

PI3K, sequence (P42336 whole entry): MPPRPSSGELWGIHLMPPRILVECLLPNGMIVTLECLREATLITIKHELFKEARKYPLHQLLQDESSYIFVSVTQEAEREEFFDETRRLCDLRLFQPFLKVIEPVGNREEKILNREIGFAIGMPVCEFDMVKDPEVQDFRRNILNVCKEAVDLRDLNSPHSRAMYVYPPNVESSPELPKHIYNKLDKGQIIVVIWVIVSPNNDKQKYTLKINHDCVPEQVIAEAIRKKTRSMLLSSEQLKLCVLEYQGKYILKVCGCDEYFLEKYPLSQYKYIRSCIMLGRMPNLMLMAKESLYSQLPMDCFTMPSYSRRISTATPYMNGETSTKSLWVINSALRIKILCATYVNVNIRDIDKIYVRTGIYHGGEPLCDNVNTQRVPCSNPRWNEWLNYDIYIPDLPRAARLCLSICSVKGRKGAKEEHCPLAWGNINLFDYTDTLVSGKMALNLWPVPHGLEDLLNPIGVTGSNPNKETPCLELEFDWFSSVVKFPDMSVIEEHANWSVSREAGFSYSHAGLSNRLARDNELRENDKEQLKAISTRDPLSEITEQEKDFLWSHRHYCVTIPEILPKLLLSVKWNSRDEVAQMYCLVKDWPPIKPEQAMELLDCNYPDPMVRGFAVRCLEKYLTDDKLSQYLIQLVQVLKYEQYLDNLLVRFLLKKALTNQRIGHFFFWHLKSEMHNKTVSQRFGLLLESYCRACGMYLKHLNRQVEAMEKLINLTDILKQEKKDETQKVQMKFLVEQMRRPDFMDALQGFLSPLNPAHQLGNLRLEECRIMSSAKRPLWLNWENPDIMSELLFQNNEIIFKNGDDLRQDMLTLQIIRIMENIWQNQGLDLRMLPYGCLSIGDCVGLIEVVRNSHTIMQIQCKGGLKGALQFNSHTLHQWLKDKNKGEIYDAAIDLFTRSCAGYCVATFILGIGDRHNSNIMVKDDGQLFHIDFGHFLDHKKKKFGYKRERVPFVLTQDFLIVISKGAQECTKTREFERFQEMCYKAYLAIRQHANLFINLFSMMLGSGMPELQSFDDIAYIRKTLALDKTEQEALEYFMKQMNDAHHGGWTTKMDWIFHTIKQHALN
PI3K, sequence (P27986 whole entry partner): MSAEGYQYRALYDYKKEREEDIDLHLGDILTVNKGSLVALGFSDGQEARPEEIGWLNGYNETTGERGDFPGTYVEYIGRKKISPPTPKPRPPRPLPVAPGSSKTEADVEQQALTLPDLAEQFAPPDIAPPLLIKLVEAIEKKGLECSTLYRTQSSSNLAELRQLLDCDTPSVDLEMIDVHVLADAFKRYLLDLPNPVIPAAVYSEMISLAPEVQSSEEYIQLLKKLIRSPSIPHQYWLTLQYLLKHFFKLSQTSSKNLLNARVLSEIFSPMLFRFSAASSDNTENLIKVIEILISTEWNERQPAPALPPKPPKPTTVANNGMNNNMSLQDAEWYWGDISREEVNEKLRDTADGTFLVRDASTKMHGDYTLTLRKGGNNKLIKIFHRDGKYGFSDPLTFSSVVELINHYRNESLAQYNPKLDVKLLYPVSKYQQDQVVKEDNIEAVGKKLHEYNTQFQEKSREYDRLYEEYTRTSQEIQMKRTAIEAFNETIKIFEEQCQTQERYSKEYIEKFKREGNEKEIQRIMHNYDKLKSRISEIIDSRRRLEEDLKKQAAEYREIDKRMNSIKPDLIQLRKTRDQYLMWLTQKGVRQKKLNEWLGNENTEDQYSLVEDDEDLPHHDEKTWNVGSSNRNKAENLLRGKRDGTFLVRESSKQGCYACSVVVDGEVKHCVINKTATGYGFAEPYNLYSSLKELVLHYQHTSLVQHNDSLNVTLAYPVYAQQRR

On to `CCNC(=S)N1CCC(n2ncc3c(N4CCOCC4)nc(-c4ccc(NC(=O)OC)cc4)nc32)CC1` [Compound 812, methyl [4-(1-{1-[(ethylamino)carbonothioyl]piperidin-4-yl}-4-morpholin-4-yl-1H-pyrazolo[3,4-d]pyrimidin-6-yl)phenyl]carbamate], for which the concentration for half-maximal inhibition (IC50) in test [1] stood at 688 nM; in test [2] (Homo sapiens, LNCaP, 72 h) it was 2400 nM; in test [3] (Homo sapiens, 72 h), 3000 nM.
The corresponding values for `CCCNC(=O)Nc1ccc(-c2nc(N3CCOCC3)c3cnn(C4CCN(C(=O)OCCC)CC4)c3n2)cc1` [Compound 853, propyl 4-(4-morpholin-4-yl-6-{4-[(propylcarbamoyl)amino]phenyl}-1H-pyrazolo[3,4-d]pyrimidin-1-yl)piperidine-1-carboxylate] are 824 nM, 130 nM and 1000 nM.
The corresponding values for `NCC(=O)Nc1ccc(-c2nc(N3CCOCC3)c3cn[nH]c3n2)cc1` [Compound 528, N-[4-(4-morpholin-4-yl-1H-pyrazolo[3,4-d]pyrimidin-6-yl)phenyl]glycinamide] are 128 nM, 9000 nM and 11000 nM.
`CNC(=O)Nc1ccc(-c2nc(N3CCOCC3)c3cnn(C4CCN(C(=O)c5ccc(F)nc5)CC4)c3n2)cc1` [Compound 665, 1-[4-(1-{1-[(6-fluoropyridin-3-yl)carbonyl]piperidin-4-yl}-4-morpholin-4-yl-1H-pyrazolo[3,4-d]pyrimidin-6-yl)phenyl]-3-methylurea]: the IC50 in test [1] came out at 100 nM; in test [2], 250 nM; in test [3], 270 nM.
Regarding `C=CC(=O)N1CCC(n2ncc3c(N4CCOCC4)nc(-c4ccc5[nH]ccc5c4)nc32)CC1` [Compound 194], the IC50 in test [1] was 1060 nM; in test [2] (Homo sapiens, LNCaP, 72 h), 950 nM; in test [3] (Homo sapiens, 72 h), 3000 nM.
Turning to `NCCC(=O)Nc1ccc(-c2nc(N3CCOCC3)c3cn[nH]c3n2)cc1` [Compound 283], the IC50 in test [1] is 203 nM; in test [2] (Homo sapiens, LNCaP, 72 h) it was 1500 nM; in test [3] (Homo sapiens, 72 h) it was 13000 nM.
For the compound `O=C(CCO)Nc1ccc(-c2nc(N3CCOCC3)c3cnn(-c4ccccc4)c3n2)cc1` [Compound 139], the IC50 was determined as 134 nM in test [1]; 1500 nM in test [2] (Homo sapiens, LNCaP, 72 h); 60000 nM in test [3] (Homo sapiens, 72 h).
Consider `O=C(Nc1cccnc1)N1CCC(n2ncc3c(N4CCOCC4)nc(-c4ccc5[nH]ccc5c4)nc32)CC1` [Compound 132], for which the IC50 in test [1] came to 311 nM; in test [2] (Homo sapiens, LNCaP, 72 h) it was 300 nM; in test [3] (Homo sapiens, 72 h) it was 1200 nM.
The like results for `CCOC(=O)N1CCC(n2ncc3c(N4CCOCC4)nc(-c4ccc(NC(=O)NCCF)cc4)nc32)CC1` [Compound 819, ethyl 4-[6-(4-{[(2-fluoroethyl)carbamoyl]amino}phenyl)-4-morpholin-4-yl-1H-pyrazolo[3,4-d]pyrimidin-1-yl]piperidine-1-carboxylate] were, in that order, 794 nM, under 27 nM and 70 nM.
`COc1cncc(-c2nc(N3CCOCC3)c3cnn(C)c3n2)c1` [Compound 11]: the concentration for half-maximal inhibition (IC50) came to 279 nM in test [1]; 4700 nM in test [2] (Homo sapiens, LNCaP, 72 h); 5000 nM in test [3] (Homo sapiens, 72 h).
The like results for `CNC(=O)Nc1ccc(-c2nc(N3CCOCC3)c3cnn(C4CCN(C(=O)c5cccc(C(C)=O)c5)CC4)c3n2)cc1` [Example 423, 1-(4-{1-[1-(3-acetylbenzoyl)piperidin-4-yl]-4-morpholin-4-yl-1H-pyrazolo[3,4-d]pyrimidin-6-yl}phenyl)-3-methylurea] were, in that order, 83 nM, 110 nM and 200 nM.
In the case of `COC(=O)N1CCC(n2ncc3c(N4CCOC(C)C4)nc(-c4ccc(NC(=O)Nc5cccnc5)cc4)nc32)CC1` (stereo not drawn) [Compound 846, methyl 4-[4-(2-methylmorpholin-4-yl)-6-{4-[(pyridin-3-ylcarbamoyl)amino]phenyl}-1H-pyrazolo[3,4-d]pyrimidin-1-yl]piperidine-1-carboxylate], the IC50 came to 81 nM in test [1]; 58 nM in test [2] (Homo sapiens, LNCaP, 72 h); 500 nM in test [3] (Homo sapiens, 72 h).
The like results for `CC(C)(C)OC(=O)N1CCC[C@@H](n2ncc3c(N4CCOCC4)nc(-c4ccc(N)cc4)nc32)C1` [Compound 871, tert-butyl (3R)-3-[6-(4-aminophenyl)-4-morpholin-4-yl-1H-pyrazolo[3,4-d]pyrimidin-1-yl]piperidine-1-carboxylate] were, in that order, 4300 nM, 7500 nM and 2300 nM.
The like results for `CNC(=O)Nc1ccc(-c2nc(N3CCOCC3)c3cnn(C4CCN(C(=O)CC(=O)OC)CC4)c3n2)cc1` [Compound 757, methyl 3-[4-(6-{4-[(methylcarbamoyl)amino]phenyl}-4-morpholin-4-yl-1H-pyrazolo[3,4-d]pyrimidin-1-yl)piperidin-1-yl]-3-oxopropanoate] were, in that order, 124 nM, 2000 nM and 1100 nM.
For the compound `CNC(=O)Nc1ccc(-c2nc(N3CCOCC3)c3cnn(C4CCN(Cc5cccnc5Cl)CC4)c3n2)cc1` [Example 390, 1-[4-(1-{1-[(2-chloropyridin-3-yl)methyl]piperidin-4-yl}-4-morpholin-4-yl-1H-pyrazolo[3,4-d]pyrimidin-6-yl)phenyl]-3-methylurea], the IC50 in test [1] was determined as 90 nM; in test [2] (Homo sapiens, LNCaP, 72 h), 45 nM; in test [3] (Homo sapiens, 72 h) it was 100 nM.
As to `CNC(=O)Nc1ccc(-c2nc(N3CCOCC3)c3cnn(C4CCN(C(=O)c5ccc(Cl)nc5)CC4)c3n2)cc1` [Compound 668, 1-[4-(1-{1-[(6-chloropyridin-3-yl)carbonyl]piperidin-4-yl}-4-morpholin-4-yl-1H-pyrazolo[3,4-d]pyrimidin-6-yl)phenyl]-3-methylurea], the IC50 in test [1] was found to be 84 nM; in test [2] it was 150 nM; in test [3] it was 410 nM.
For `CNC(=O)Nc1ccc(-c2nc(N3CCOCC3)c3cnn(C4CCN(C(=O)c5ccc(Cl)cc5)CC4)c3n2)cc1` [Compound 608, 1-(4-{1-[1-(4-chlorobenzoyl)piperidin-4-yl]-4-morpholin-4-yl-1H-pyrazolo[3,4-d]pyrimidin-6-yl}phenyl)-3-methylurea], the 50% inhibitory concentration (IC50) in test [1] was 42 nM; in test [2] (Homo sapiens, LNCaP, 72 h), 52 nM; in test [3] (Homo sapiens, 72 h) it was 400 nM.
For `CONC(=O)Nc1ccc(-c2nc(N3CCOCC3)c3cnn(C4CCN(C(=O)c5cccnc5)CC4)c3n2)cc1` [Compound 553, 1-methoxy-3-(4-{4-morpholin-4-yl-1-[1-(pyridin-3-ylcarbonyl)piperidin-4-yl]-1H-pyrazolo[3,4-d]pyrimidin-6-yl}phenyl)urea], the half-maximal inhibitory concentration (IC50) in test [1] amounted to 1810 nM; in test [2] (Homo sapiens, LNCaP, 72 h), 800 nM; in test [3] (Homo sapiens, 72 h), 3000 nM.
For `Nc1ccc(-c2nc(N3CCOCC3)c3cnn(C4CCN(C(=O)c5cccnc5)CC4)c3n2)nc1` [Compound 435, 6-{4-morpholin-4-yl-1-[1-(pyridin-3-ylcarbonyl)piperidin-4-yl]-1H-pyrazolo[3,4-d]pyrimidin-6-yl}pyridin-3-amine], the IC50 in test [1] is 4040 nM; in test [2] (Homo sapiens, LNCaP, 72 h), 45000 nM; in test [3] (Homo sapiens, 72 h), 60000 nM.
For the compound `Nc1ccc(-c2nc(N3CCOCC3)c3cnn(C4CCN(Cc5ccccc5)CC4)c3n2)cc1F` [Compound 347, 4-[1-(1-benzylpiperidin-4-yl)-4-morpholin-4-yl-1H-pyrazolo[3,4-d]pyrimidin-6-yl]-2-fluoroaniline], the half-inhibitory concentration (IC50) is 1650 nM in test [1]; 2000 nM in test [2] (Homo sapiens, LNCaP, 72 h); 4000 nM in test [3] (Homo sapiens, 72 h).
